For assay [1], the species on record is Homo sapiens. Kind of assay: Selectivity index, ratio of IC50 for human OX2R expressed in CHO cells to IC50 for human OX1R expressed in CHO cells. In kind it is cell-based.
The target in assay [2] is T1, Orexin receptor type 2 (Homo sapiens, UniProt O43614).
T1 sequence (O43614 whole entry): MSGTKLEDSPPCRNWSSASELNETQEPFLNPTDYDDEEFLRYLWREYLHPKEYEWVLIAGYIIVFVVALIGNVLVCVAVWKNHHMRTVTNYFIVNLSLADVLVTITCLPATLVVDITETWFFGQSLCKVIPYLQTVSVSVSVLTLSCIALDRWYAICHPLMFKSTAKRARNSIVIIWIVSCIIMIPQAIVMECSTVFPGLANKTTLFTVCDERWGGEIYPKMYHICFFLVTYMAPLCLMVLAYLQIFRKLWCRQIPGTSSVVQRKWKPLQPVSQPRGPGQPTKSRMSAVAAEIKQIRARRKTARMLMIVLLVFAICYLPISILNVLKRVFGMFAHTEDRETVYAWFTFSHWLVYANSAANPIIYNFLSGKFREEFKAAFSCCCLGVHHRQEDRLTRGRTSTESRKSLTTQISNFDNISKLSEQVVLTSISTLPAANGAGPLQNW
Description: Antagonist activity at human OX2R expressed in CHO cells assessed as reduction in [Ala6,12]orexin-A-induced intracellular Ca2+ mobilization incubated for 30 mins by Fluo-4AM dye based fluorescence assay. In kind it is functional, cell-based.

For assay [3], the target named is T2, Orexin/Hypocretin receptor type 1 (Homo sapiens, UniProt O43613).
T2 sequence (O43613 whole entry): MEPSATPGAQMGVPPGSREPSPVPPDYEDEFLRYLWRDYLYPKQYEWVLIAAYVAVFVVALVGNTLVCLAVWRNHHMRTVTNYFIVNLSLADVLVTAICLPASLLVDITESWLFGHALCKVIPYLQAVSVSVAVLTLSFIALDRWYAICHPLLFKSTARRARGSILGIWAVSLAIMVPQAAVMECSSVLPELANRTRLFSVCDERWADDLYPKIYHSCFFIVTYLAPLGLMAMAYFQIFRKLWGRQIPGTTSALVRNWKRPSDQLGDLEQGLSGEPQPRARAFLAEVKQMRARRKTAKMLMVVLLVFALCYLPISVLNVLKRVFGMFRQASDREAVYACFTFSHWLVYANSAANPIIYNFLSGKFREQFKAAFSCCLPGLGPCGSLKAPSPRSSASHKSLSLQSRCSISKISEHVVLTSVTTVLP
Kind of assay: Antagonist activity at human OX1R expressed in CHO cells assessed as reduction in [Ala6,12]orexin-A-induced intracellular Ca2+ mobilization incubated for 30 mins by Fluo-4AM dye based fluorescence assay. The assay is classed as functional, cell-based. A general note: A change in cytosolic calcium serves as a functional read-out for many receptors and channels.

The species named for assay [4] is Homo sapiens. Kind of assay: Selectivity index, ratio of IC50 for OX2R expressed in CHO cells to IC50 for human OX1R expressed in CHO cells. The assay is classed as cell-based.

In the case of `CCN(C(=O)c1cc(C)ccc1-n1nccn1)[C@@H](C)Cn1cc(-c2ccc(F)cn2)nn1`, the Ratio IC50 in assay [1] turned out to be 12. Besides, the IC50 (as a rule, the concentration at which inhibition is half-maximal) in assay [2] is 22.8 nM; in assay [3], 1.93 nM.
As for `CCN(C(=O)c1cc(C)ccc1-c1ncccn1)[C@@H](C)Cc1noc(-c2ccc(F)cn2)n1`, in assay [1], the Ratio IC50 turned out to be 13. Also, the IC50 in assay [2] was found to be 43.2 nM; in assay [3] it was 3.24 nM.
On to `CCN(C(=O)c1cc(C)ccc1-c1ncccn1)[C@@H](C)Cn1nnc(-c2ccc(F)cn2)n1`, for which the Ratio IC50 in assay [1] turned out to be 12. Moreover, the IC50 was 129 nM in assay [2] and 10.6 nM in assay [3].
The matching figures for `CCN(C(=O)c1cc(F)ccc1-n1nccn1)[C@@H](C)Cn1nnc(-c2ccc(F)cc2)n1`: 45, 139 nM and 3.06 nM.
For the compound `Cc1ccc(-n2nccn2)c(C(=O)N(C)CCn2cc(-c3ccc(F)cn3)cn2)c1`, the Ratio IC50 in assay [1] was determined as 0.92. Also, the IC50 was found to be 51.7 nM in assay [2] and 56.1 nM in assay [3].
Taken in the same sequence, the figures for `Cc1ccc(-n2nccn2)c(C(=O)N[C@@H](C)Cn2cc(-c3ccc(F)cn3)cn2)c1` were 3.4, 840 nM and 245 nM.
For `Cc1ccc(-n2nccn2)c(C(=O)NCCn2cc(-c3ccc(F)cn3)cn2)c1`, the IC50 in assay [3] was found to be 908 nM.
For the compound `CCN(C(=O)c1cc(C)ccc1-n1nccn1)[C@@H](C)Cc1noc(-c2ccc(F)cc2)n1`, the Ratio IC50 in assay [1] is 2.6. Besides, the IC50 in assay [2] was found to be 2.73 nM; in assay [3], 1.07 nM.
Taken in the same sequence, the figures for `Cc1ccc(-n2nccn2)c(C(=O)N(C)[C@H](Cn2ccc(-c3ccc(F)cn3)n2)C(C)C)c1` were 16, 952 nM and 61.5 nM.
In the case of `CCN(C(=O)c1nc(C)ccc1-n1nccn1)[C@@H](C)Cc1noc(-c2ccc(F)cc2)n1`, in assay [1], the Ratio IC50 came to 22. In addition, the IC50 in assay [2] came out at 40.5 nM; in assay [3] it was 1.82 nM.
Turning to `CC[C@@H](Cn1ccc(-c2ccc(F)cn2)n1)N(C)C(=O)c1cc(C)ccc1-n1nccn1`, the Ratio IC50 in assay [1] stood at 6.6. The half-maximal inhibitory concentration (IC50) came to 29 nM in assay [2] and 4.39 nM in assay [3].
For the compound `CCN(C(=O)c1cc(F)ccc1-n1nccn1)[C@@H](C)Cc1noc(-c2ccc(F)cn2)n1`, in assay [1], the Ratio IC50 came to 60. The values for the IC50 in assay [2] and in assay [3] were 887 nM and 14.7 nM, respectively.
Take `CCN(C(=O)c1cc(F)ccc1-c1ncccn1)[C@@H](C)Cc1noc(-c2ccc(F)cc2)n1`: in assay [1], the Ratio IC50 turned out to be 51. Also, the IC50 in assay [2] is 80.1 nM; in assay [3] it was 1.58 nM.
Taken in the same sequence, the figures for `CCN(C(=O)c1cc(F)ccc1-n1nccn1)[C@@H](C)Cn1nnc(-c2ccc(F)cn2)n1` were 50, 471 nM and 9.45 nM.
Taken in the same sequence, the figures for `CCN(C(=O)c1ccccc1-n1nccn1)[C@@H](C)Cn1nnc(-c2ccc(F)cc2)n1` were 25, 61 nM and 2.45 nM.
Take `CCN(C(=O)c1cc(C)ccc1-n1nccn1)[C@@H](C)Cn1nnc(-c2ccc(F)cc2)n1`: the Ratio IC50 in assay [1] was determined as 3.1. Further, the 50% inhibitory concentration (IC50) stood at 2.57 nM in assay [2] and 0.82 nM in assay [3].
Taken in the same sequence, the figures for `CCN(C(=O)c1nc(C)ccc1-c1ncccn1)[C@@H](C)Cc1noc(-c2ccc(F)cc2)n1` were 71, 254 nM and 3.58 nM.
Regarding `CCN(C(=O)c1ccccc1-n1nccn1)[C@@H](C)Cc1noc(-c2ccc(F)cc2)n1`, in assay [1], the Ratio IC50 worked out at 9.3. Besides, the figures for the IC50 in assay [2] and in assay [3] were 11.6 nM and 1.25 nM, respectively.
With `Cc1ccc(-n2nccn2)c(C(=O)N[C@@H](C)Cn2ccc(-c3ccc(F)cn3)n2)c1`, the Ratio IC50 in assay [1] amounted to 5.8. Also, the IC50 in assay [2] came to 58.4 nM; in assay [3], 10.1 nM.
As to `CCN(C(=O)c1cc(C)ccc1-n1nccn1)[C@H](C)Cn1ccc(-c2ccc(F)cn2)n1`, the Ratio IC50 in assay [1] is 2.9. Also, the figures for the concentration for half-maximal inhibition (IC50) in assay [2] and in assay [3] were 250 nM and 86.6 nM, respectively.
Regarding `CCN(C(=O)c1cc(C)ccc1-c1ncccn1)[C@@H](C)Cc1noc(-c2ccc(F)cc2)n1`, the Ratio IC50 in assay [1] turned out to be 6.3. Also, the IC50 in assay [2] worked out at 8.85 nM.
With `Cc1ccc(-n2nccn2)c(C(=O)NCCn2ccc(-c3ccc(F)cn3)n2)c1`, the Ratio IC50 in assay [1] was 1.7. The values for the IC50 in assay [2] and in assay [3] were 198 nM and 119 nM, respectively.
For `Cc1nc2ccc(NC(=O)Nc3ccnc4cccnc34)cc2o1`, the Ratio IC50 in assay [4] was 50.
Consider `CCN(C(=O)c1cc(F)ccc1-n1nccn1)[C@@H](C)Cc1noc(-c2ccc(F)cc2)n1`, for which the Ratio IC50 in assay [1] was 19. Further, the results for the IC50 in assay [2] and in assay [3] were 23.6 nM and 1.26 nM, respectively.
Taken in the same sequence, the figures for `Cc1ccc(-n2nccn2)c(C(=O)N(C)[C@@H](C)Cn2cc(-c3ccc(F)cn3)cn2)c1` were 4.8, 21.2 nM and 4.39 nM.
As for `Cc1ccc(-n2nccn2)c(C(=O)N(C)CCn2ccc(-c3ccc(F)cn3)n2)c1`, in assay [1], the Ratio IC50 worked out at 2.1. The IC50 in assay [2] came out at 11.9 nM.
As for `CCN(C(=O)c1cc(C)ccc1-n1nccn1)[C@@H](C)Cc1noc(-c2ccc(F)cn2)n1`, in assay [1], the Ratio IC50 amounted to 9. Moreover, the IC50 stood at 11.3 nM in assay [2] and 1.26 nM in assay [3].
Taken in the same sequence, the figures for `CCN(C(=O)c1cc(C)ccc1-n1nccn1)[C@@H](C)Cn1ccc(-c2ccc(F)cn2)n1` were 1, 1.61 nM and 1.62 nM.
Turning to `CCN(C(=O)c1cc(C)ccc1-c1ncccn1)[C@@H](C)Cn1nnc(-c2ccc(F)cc2)n1`, in assay [1], the Ratio IC50 came to 20. The IC50 in assay [2] was determined as 36 nM; in assay [3] it was 1.81 nM.
Regarding `CCN(C(=O)c1cc(C)ccc1-n1nccn1)[C@@H](C)Cn1nnc(-c2ccc(F)cn2)n1`, in assay [1], the Ratio IC50 is 16. Besides, the 50% inhibitory concentration (IC50) in assay [2] amounted to 17.9 nM; in assay [3], 1.1 nM.
As for `CCN(C(=O)c1cc(C)ccc1-n1nccn1)[C@@H](C)Cn1cc(-c2ccc(F)cn2)cn1`, the Ratio IC50 in assay [1] came out at 7.7. Besides, the IC50 in assay [2] was 5.87 nM; in assay [3], 0.767 nM.
The matching figures for `CCN(C(=O)c1nc(C)ccc1-n1nccn1)[C@@H](C)Cn1nnc(-c2ccc(F)cc2)n1`: 65, 119 nM and 1.84 nM.
The matching figures for `Cc1ccc(-n2nccn2)c(C(=O)N(C)[C@@H](C)Cn2ccc(-c3ccc(F)cn3)n2)c1`: 3, 5.68 nM and 1.9 nM.
Regarding `CCN(CCn1cc(-c2ccc(F)cn2)cn1)C(=O)c1cc(C)ccc1-n1nccn1`, the Ratio IC50 in assay [1] came out at 1.6. Besides, the IC50 was 14.2 nM in assay [2] and 9.06 nM in assay [3].
Taken in the same sequence, the figures for `CCN(CCn1ccc(-c2ccc(F)cn2)n1)C(=O)c1cc(C)ccc1-n1nccn1` were 0.87, 2.81 nM and 3.22 nM.

The record behind these values is ChEMBL document CHEMBL4043177 (Bioorg Med Chem, 2017).
